Each block holds one sequence with its values, some of them ahead of it. No end group written: not given here.
Tests used:
Assay type in all cases: physicochemical
[1] = Freeze–thaw stability of model peptides, UPLC-MS; conditions: 150 µg/mL in PBS, two freeze–thaw cycles, fivefold on three consecutive days
Description: A UPLC-MS system was used for the development and validation of the stability-indicating analytical method. The apparatus, column, flow rate, mobile phase A, mobile phase B, mass acquisition, and sample run time were: UPLC UltiMate 3000 RSLC System (Thermo Fisher Scientific, Waltham, MA, USA) coupled to a Q Exactive Orbitrap Mass Spectrometers (Thermo Fisher Scientific, Waltham, MA, USA); Acquity UPLC Peptide CSH C18, 130 Å, 1.7 µm, 2.1 mm × 150 mm (Waters Corporation, Milford, MA, USA); 0.40 mL/min; 0.013% ammonium formate and 0.1% formic acid dissolved in ultrapure water (pH 2.8); 0.013% ammonium formate and 0.1% formic acid dissolved in a mixture of 0.495:0.495:0.10 methanol, acetonitrile, and ultrapure water; masses scanned from 300.0–1900.0 m/z; 15 min; respectively. The mobile phase gradient started at t0 min with 98% of mobile phase A that was gradually adjusted to 40% at t9 min. At t9.1 min, mobile phase A was set at 2% till t11.1 min. At t11.2 min, mobile phase A was set at 98% until the end of the sample run time.
For each peptide, six stock concentrations in the range of 5–225 µg/mL dissolved in PBS were made. The linear relationship of the calibration curves was investigated by regression analysis. The linear correlation coefficient (R^2), goodness of fit, and lack of fit were analyzed. For the accuracy and precision tests, samples of 50 µg/mL, 150 µg/mL, and 225 µg/mL were analyzed in triplicate on three consecutive days to determine the closeness of agreement of the measurements compared to the analyzed concentrations (accuracy % bias) and repeated experiments (relative standard deviations (RSD)). For the sensitivity test, peptide samples at 5 µg/mL were analyzed in triplicate on three consecutive days and the signal-to-noise (S/N) ratio was calculated from representative chromatograms. For the freeze–thaw experiment, samples at 150 µg/mL for each of the three peptides were prepared and analyzed in fivefold on three consecutive days after each sample was subjected to two freeze–thaw cycles before the analysis was initiated.

[2] = In-use stability of thawed aqueous peptide mixtures at room temperature, UPLC-MS; conditions: 4 h room temperature
[3] = Release testing and long-term (frozen) stability of aqueous peptide mixtures (143 µg/mL per peptide in PBS 10 mM pH 7.0), UPLC-MS
[4] = Filter experiment: peptide adsorption to the 0.22 µm sterilization filter, UPLC-MS; conditions: unfiltered sample

- Freeze–thaw stability, average bias [1]: 1%
Sequence: SAMEKRGARETQQQRKRVFRGRGVNSAK [FRM001P11]

- Freeze–thaw stability, average bias [1]: 4%
Sequence: VTLEERLDKACEPGVDYDGQTGVIHFQPRG [FRM001P23]

- Peptide peak ratio ([2]; in FRM001-M4, 2 w −25 °C): 13.4%
- Peptide peak ratio ([2]; in FRM001-M4, 4 w −25 °C): 14.5%
- Peptide peak ratio ([2]; in FRM001-M4, 8 w −25 °C): 14.4%
- Peptide peak ratio ([2]; in FRM001-M4, 8 w −80 °C): 14.7%
- Peptide peak ratio ([2]; in FRM001-M4, 12 w −25 °C): 14.6%
- Peptide peak ratio ([2]; in FRM001-M4, 12 w −80 °C): 14.4%
- Peptide peak ratio ([2]; in FRM001-M4, 16 w −25 °C): 13.1%
- Peptide peak ratio ([2]; in FRM001-M4, 16 w −80 °C): 13.0%
- Peptide peak ratio ([2]; in FRM001-M4, 32 w −25 °C): 13.5%
- Peptide peak ratio ([2]; in FRM001-M4, 32 w −80 °C): 13.4%
- Peptide peak ratio ([3]; in FRM001-M4, 2 w −25 °C): 13.6%
- Peptide peak ratio ([3]; in FRM001-M4, 4 w −25 °C): 14.6%
- Peptide peak ratio ([3]; in FRM001-M4, 8 w −25 °C): 14.7%
- Peptide peak ratio ([3]; in FRM001-M4, 8 w −80 °C): 14.9%
- Peptide peak ratio ([3]; in FRM001-M4, 12 w −25 °C): 14.4%
- Peptide peak ratio ([3]; in FRM001-M4, 12 w −80 °C): 14.6%
- Peptide peak ratio ([3]; in FRM001-M4, 16 w −25 °C): 13.3%
- Peptide peak ratio ([3]; in FRM001-M4, 16 w −80 °C): 13.1%
- Peptide peak ratio ([3]; in FRM001-M4, 32 w −25 °C): 13.6%
- Peptide peak ratio ([3]; in FRM001-M4, 32 w −80 °C): 13.9%
- Peptide peak ratio ([3]; in FRM001-M4, t = 0 w): 14.2%
- Peak ratio ([4]; in FRM001M4): 14.1%
Sequence: GVDYASCGHLVKIWPRRMNRSDVCTVWS [FRM001P13, neoantigen peptide, in FRM001-M4]

- Peptide peak ratio ([2]; in FRM001-M2, 2 w −25 °C): 23.0%
- Peptide peak ratio ([2]; in FRM001-M2, 4 w −25 °C): 20.5%
- Peptide peak ratio ([2]; in FRM001-M2, 8 w −25 °C): 21.0%
- Peptide peak ratio ([2]; in FRM001-M2, 8 w −80 °C): 21.0%
- Peptide peak ratio ([2]; in FRM001-M2, 12 w −25 °C): 19.7%
- Peptide peak ratio ([2]; in FRM001-M2, 12 w −80 °C): 20.6%
- Peptide peak ratio ([2]; in FRM001-M2, 16 w −25 °C): 18.9%
- Peptide peak ratio ([2]; in FRM001-M2, 16 w −80 °C): 20.0%
- Peptide peak ratio ([2]; in FRM001-M2, 32 w −25 °C): 22.7%
- Peptide peak ratio ([2]; in FRM001-M2, 32 w −80 °C): 24.2%
- Peptide peak ratio ([3]; in FRM001-M2, 2 w −25 °C): 22.0%
- Peptide peak ratio ([3]; in FRM001-M2, 4 w −25 °C): 19.5%
- Peptide peak ratio ([3]; in FRM001-M2, 8 w −25 °C): 19.6%
- Peptide peak ratio ([3]; in FRM001-M2, 8 w −80 °C): 20.5%
- Peptide peak ratio ([3]; in FRM001-M2, 12 w −25 °C): 18.1%
- Peptide peak ratio ([3]; in FRM001-M2, 12 w −80 °C): 20.0%
- Peptide peak ratio ([3]; in FRM001-M2, 16 w −25 °C): 17.9%
- Peptide peak ratio ([3]; in FRM001-M2, 16 w −80 °C): 19.5%
- Peptide peak ratio ([3]; in FRM001-M2, 32 w −25 °C): 20.3%
- Peptide peak ratio ([3]; in FRM001-M2, 32 w −80 °C): 22.6%
- Peptide peak ratio ([3]; in FRM001-M2, t = 0 w): 24.6%
- Peak ratio ([4]; in FRM001M2): 27.7%
Sequence: CKECGRPLDVVHTLLHIRAFMLIKNPMNVK [FRM001P12, neoantigen peptide, in FRM001-M2]
